Laboratory results published in patent US5475130A, “Anilide derivative” (Taisho Pharmaceutical Co., Ltd., priority 1990, dated 1995).
pIC50: −log10 of the molar value. Where two headings read alike, the source gives them in different places.

Target: T1, ACAT (acyl-coenzyme A cholesterol acyltransferase) (Oryctolagus cuniculus, UniProt G1SFD9)
T1 construct: A rabbit small intestinal microsome fraction was prepared in the usual way; from tissue; host or cells: rabbit small intestine, microsome fraction
T1 sequence (G1SFD9 1-524): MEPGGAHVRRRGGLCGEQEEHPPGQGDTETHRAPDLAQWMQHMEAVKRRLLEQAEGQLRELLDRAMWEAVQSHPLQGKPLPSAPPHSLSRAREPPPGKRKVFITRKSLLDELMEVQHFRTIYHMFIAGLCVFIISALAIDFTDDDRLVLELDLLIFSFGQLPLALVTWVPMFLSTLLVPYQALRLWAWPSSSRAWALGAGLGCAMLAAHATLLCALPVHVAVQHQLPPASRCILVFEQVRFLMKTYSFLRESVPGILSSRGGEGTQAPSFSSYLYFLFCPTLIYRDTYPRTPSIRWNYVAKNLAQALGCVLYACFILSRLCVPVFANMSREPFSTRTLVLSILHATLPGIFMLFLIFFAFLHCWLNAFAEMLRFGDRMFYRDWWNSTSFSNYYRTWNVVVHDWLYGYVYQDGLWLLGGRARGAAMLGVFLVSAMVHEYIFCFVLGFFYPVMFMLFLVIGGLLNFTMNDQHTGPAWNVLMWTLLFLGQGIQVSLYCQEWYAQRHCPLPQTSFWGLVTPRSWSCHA
Test: ACAT inhibition activity (rabbit small intestinal microsome fraction, [1-^14 C]oleyl coenzyme A)
Type: biochemical
Experimental: (ACAT inhibition activity)
A rabbit small intestinal microsome fraction was prepared in the usual way, and the thus prepared microsome fraction was suspended in 0.04N potassiumphosphate buffer (pH 7.4) containing 0.1N sucrose, 0.03N ethylenediaminetetraacetic acid (EDTA) and 0.05N potassium chloride. Each of the drugs to be tested was dissolved in dimethyl sulfoxide.
The rabbit small intestinal microsome fraction suspension prepared above (250 μg as protein) and [1-^14 C]oleyl coenzyme A were added to 0.05N phosphate buffer (pH 7.4) containing 1% bovine serum albumin, followed by the addition of a drug to be tested with varied concentration,and the total volume was adjusted to 500 μl. The thus prepared mixture was incubated at 37° C. for 6 minutes, and the reaction was terminated by adding a mixture of chloroform and methanol (mixing ratio=2:1). After stirring, the resulting chloroform layer was collected and dried by concentration. […] A gel portion corresponding to cholesterol oleate was cut out and its radioactivity was measured using a liquid scintillation counter (LSC-3000, manufactured by Aroka Co., Ltd.). Samples obtained without using the drugs to be tested were also treated and measured in the same manner.
ACAT activity inhibition ratio (%)=(A-B)/B×100
A: ACAT activity when a drug to be tested is administered.
B: ACAT activity when a drug to be tested is not admistered.

[1] = rabbit small intestinal microsome fraction (250 μg as protein), 37° C., 6 minutes, pH 7.4, 1% bovine serum albumin, read-out: Activity (strength of the activity, IC50 value)

| SMILES | pIC50 [1] | pIC50 |
| --- | --- | --- |
| CCCCCCCCCCCCCCSCC(=O)Nc1c(C(C)C)cccc1C(C)C [Compound 1, N-(2,6-diisopropylphenyl)-2-(tetradecylthio)acetamide] | – | 8.00 to 9.00 |
| CC(C)c1cccc(C(C)C)c1NC(=O)CSCc1ccc(C(C)(C)C)cc1 [Compound 8, N-(2,6-diisopropylphenyl)-2-(4-t-butylbenzylthio)acetamide] | 7.00 to 8.00 | – |
| CCCCCCCCCCCCCCSC(C)(C)C(=O)Nc1c(C(C)C)cccc1C(C)C [Compound 9, N-(2,6-diisopropylphenyl)-2-methyl-2-(tetradecylthio)propanamide] | 7.00 to 8.00 | – |
| CCCCCCCCCCCCCCSCCCC(=O)Nc1c(C(C)C)cccc1C(C)C [Compound 10, N-(2,6-diisopropylphenyl)-4-(tetradecylthio)butanamide] | 8.00 to 9.00 | – |
| CCCCCCCCCCCCCC[S+]([O-])CC(=O)Nc1c(C(C)C)cccc1C(C)C (stereo not shown) [Compound 13] | 7.00 to 8.00 | – |
| CCCCCCCCCCCCCCS(=O)(=O)CC(=O)Nc1c(C(C)C)cccc1C(C)C [Compound 14, N-(2,6-diisopropylphenyl)-2-(tetradecylsulfonyl)acetamide] | 7.00 to 8.00 | – |
| CCCCCCCCCCCCS(=O)(=O)CC(=O)Nc1c(C(C)C)cccc1C(C)C [Compound 17, N-(2,6-diisopropylphenyl)-2-(dodecylsulfonyl)acetamide] | 7.00 to 8.00 | – |
| CCCCCCCCCCCCCCCCS(=O)(=O)CC(=O)Nc1c(C(C)C)cccc1C(C)C [Compound 18, N-(2,6-diisopropylphenyl)-2-(hexadecylsulfonyl)acetamide] | 7.00 to 8.00 | – |

Now from value to molecule, other results behind:

| pIC50 [1] | SMILES | pIC50 |
| --- | --- | --- |
| 7.00 to 8.00 | CCCCCCCCCCCCSCC(=O)Nc1c(C(C)C)cccc1C(C)C [Compound 4, N-(2,6-diisopropylphenyl)-2-(dodecylthio)acetamide] | – |
| 7.00 to 8.00 | CCCCCCCCCCCCCCCCSCC(=O)Nc1c(C(C)C)cccc1C(C)C [Compound 5, N-(2,6-diisopropylphenyl)-2-(hexadecylthio)acetamide] | – |
| 8.00 to 9.00 | CCCCCCCCCCCCCCCCCCSCC(=O)Nc1c(C(C)C)cccc1C(C)C [Compound 6, N-(2,6-diisopropylphenyl)-2-(octadecylthio)acetamide] | – |
| 8.00 to 9.00 | CCCCCCCCCCCCCCSCCC(=O)Nc1c(C(C)C)cccc1C(C)C [Compound 12, N-(2,6-diisopropylphenyl)-3-(tetradecylthio)propanamide] | – |
| 8.00 to 9.00 | CCCCCCCCCCCCCCSCC(=O)Nc1c(C)cccc1C(C)(C)C [Compound 24, N-(2-methyl-6-t-butylphenyl)-2-(tetradecylthio)acetamide] | – |
